Where a name gives a salt, the structure may show the parent alone.

T1 sequence (P21453 whole entry): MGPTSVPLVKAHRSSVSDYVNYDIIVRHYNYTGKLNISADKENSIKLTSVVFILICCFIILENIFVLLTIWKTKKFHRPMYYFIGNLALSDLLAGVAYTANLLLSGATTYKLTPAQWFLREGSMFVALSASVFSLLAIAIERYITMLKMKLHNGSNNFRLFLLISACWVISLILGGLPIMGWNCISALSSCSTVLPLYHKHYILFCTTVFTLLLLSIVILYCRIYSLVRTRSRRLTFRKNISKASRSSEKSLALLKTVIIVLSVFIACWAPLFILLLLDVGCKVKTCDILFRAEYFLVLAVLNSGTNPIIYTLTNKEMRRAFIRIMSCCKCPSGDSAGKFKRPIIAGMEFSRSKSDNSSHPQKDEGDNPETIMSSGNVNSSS

One test concerns the target T1, human S1P1 (Homo sapiens, UniProt P21453).
T1 construct: expressed in transfected cells; membrane fraction used
The experiment in a line: GTP[γ-35S] bond assay using the membrane of a human S1P1 expressing cell (S1P1 agonist activity). It is filed as biochemical. The following applies: membrane of human S1P1 expressing CHO cell; concentration causing 50% of the maximum GTP[γ-35S] reaction. On the procedure:
1) Evaluation of a Receptor Agonist Activity by a GTP[γ-^35S] Bond Assay Using the Membrane of a Human S1P1 Expressing Cell
The in vitro S1P1 agonist activity of the compound of the present invention was evaluated by the increase in the functional bonding activity into the G-Protein of a GTP[γ-^35S] using the membrane of a human S1P1 expressing cell. A cDNA encoding a human S1P1 was cloned from a human colorectal cDNA library, and introduced to an expression vector pcDNA3.1 to construct a S1P1-pcDNA3.1. Then, by Lipofectamine 2000 (GIBCO), the S1P1-pcDNA3.1 was transfected into a CHO cell, and cultured in a Ham's F-12 culture medium containing 10% fetal bovine serum, 100 U/mL Penicillin, 100 μg/mL Streptomycin, and 1 mg/mL G418 disulfate, to obtain a stable, G418-resistant strain. The cultured human S1P1 expressing cells were isolated in a 1 mM EDTA/2Na-containing PBS, and disrupted under ice-cooling by a homogenizer made of glass in a 1 mM Tris HCl (pH 7.4) buffer solution containing 0.1 mM EDTA and a […]. It was centrifuged at […], and a supernatant was further centrifuged at 4° C. for 60 min at 100,000×g, and suspended in a 10 mM Tris HCl (pH 7.4) buffer solution containing 1 mM EDTA. The obtained membrane (0.13 mg/mL) and […] GTP[γ-^35S] […] The FilterMate was dried at 50° C. for 60 min, and Microscinti-o (Packard) was added thereto for measurement by a liquids scintillation counter for a microplate (Packard, TOP count). For evaluation of the human S1P1 agonist activity of the compound of the present invention and the comparative compound, the percentages with the rate of a maximum reaction to make the GTP[γ-^35S] bonds saturated in the presence of the compound being set at 100%, and the rate of the reaction of the GTP[γ-^35S] bonds in the absence of the compound being set at 0% was used, a non-linear regression curve was plotted, and a concentration to cause an agonist activity operating 50% of the maximum reaction was defined as an EC50 value (nM).
The term EC50 denotes the concentration giving half of the maximal effect. A high value points to a need for much substance. `Cc1nc2cc(-c3noc(-c4ccc(OC(C)C(F)(F)F)c(C(F)(F)F)c4)n3)ccc2[nH]1` (centres unmarked) [Example 2, 2-methyl-5-{5-[3-(trifluoromethyl)-4-(2,2,2-trifluoro-1-methylethoxy)phenyl]-1,2,4-oxadiazol-3-yl}-1H-benzimidazole hydrochloride] registered a concentration for a half-maximal effect (EC50) of 13 nM.
On the same count and under the same terms, the figure for `CC(C)Oc1ccc(-c2nc(-c3cccc4c3ccn4CC(N)=O)no2)cc1C(F)(F)F` [Example 5, 2-(4-{5-[4-isopropoxy-3-(trifluoromethyl)phenyl]-1,2,4-oxadiazol-3-yl}-1H-indol-1-yl)acetamide] is 5.5 nM.
On the same count and under the same terms, the figure for `NC(=O)Cn1ccc2c(-c3noc(-c4ccc(OC(CF)CF)c(Cl)c4)n3)cccc21` [Example 6, 2-[4-(5-{3-chloro-4-[2-fluoro-1-(fluoromethyl)ethoxy]phenyl}-1,2,4-oxadiazol-3-yl)-1H-indol-1-yl]acetamide] is 1.2 nM; for `CC(C)Oc1ccc(-c2nc(-c3cccc4c3ccn4CC(N)=O)no2)cc1Cl` [Example 8] it is 5.4 nM.
Still for that read-out and setting: the figure for `C[C@H](Oc1ccc(-c2nc(-c3cccc4c3ccn4CC(N)=O)no2)cc1C(F)(F)F)C(F)(F)F` [Example 12, 2-[4-(5-{3-(trifluoromethyl)-4-[(1S)-2,2,2-trifluoro-1-methylethoxy]phenyl}-oxadiazol-3-yl)-1H-indol-1-yl]acetamide] is 4.7 nM; for `CC(=O)N1CCc2c(-c3noc(-c4ccc(OC(C)C(F)(F)F)c(C(F)(F)F)c4)n3)cccc21` (centres unmarked) [Example 15, 1-acetyl-4-{5-[3-(trifluoromethyl)-4-(2,2,2-trifluoro-1-methylethoxy)phenyl]-1,2,4-oxadiazol-3-yl}indoline] it is 2.1 nM.
In the case of `CC(Oc1ccc(-c2nc(-c3ccc4[nH]c(CCS(C)(=O)=O)nc4c3)no2)cc1C(F)(F)F)C(F)(F)F` (centres unmarked) [Example 23, 2-[2-(methylsulfonyl)ethyl]-5-{5-[3-(trifluoromethyl)-4-(2,2,2-trifluoro-1-methylethoxy)phenyl]-1,2,4-oxadiazol-3-yl}-1H-benzimidazole hydrochloride], the midpoint of the response, the EC50, lay at 6.8 nM.
The same measure, in the same setting: the figure for `CC(Oc1ccc(-c2nc(-c3cccc4c3CCN4)no2)cc1C(F)(F)F)C(F)(F)F` (centres unmarked) [Example 26, 4-{5-[3-(trifluoromethyl)-4-(2,2,2-trifluoro-1-methylethoxy)phenyl]-1,2,4-oxadiazol-3-yl}indoline] is 4.7 nM; for `Cc1c(-c2noc(-c3ccc(OC(C)C(F)(F)F)c(C(F)(F)F)c3)n2)ccc2[nH]cnc12` (centres unmarked) [Example 37] it is 5.4 nM.
Compound `CC(Oc1ccc(-c2nc(-c3ccc4[nH]cnc4c3)no2)cc1C(F)(F)F)C(F)(F)F` (centres unmarked) [Example 48] had a concentration giving a half-maximal response (EC50) of 6.5 nM.
Same read-out and setting: the figure for `CC(Oc1ccc(-c2nc(-c3ccc4[nH]c(N)nc4c3)no2)cc1C(F)(F)F)C(F)(F)F` (centres unmarked) [Example 51] is 13 nM; for `CC(Oc1ccc(-c2nc(-c3ccc4[nH]cnc4c3)no2)cc1Cl)C(F)(F)F` (centres unmarked) [Example 53] it is 5.8 nM; for `CC(Oc1ccc(-c2nc(-c3ccc4nc[nH]c4c3)no2)cc1C#N)C(F)(F)F` (centres unmarked) [Example 54] it is 2.3 nM.
Regarding `CC(Oc1ccc(-c2nc(-c3cccc4nccn34)no2)cc1C(F)(F)F)C(F)(F)F` (centres unmarked) [Example 59], the concentration for a half-maximal effect (EC50) turned out to be 3.8 nM.
The same measure, in the same setting: the figure for `CC(Oc1ccc(-c2nc(-c3ccnc4[nH]ccc34)no2)cc1C(F)(F)F)C(F)(F)F` (centres unmarked) [Example 60] is 2.1 nM; for `CC(Oc1ccc(-c2nc(-c3ccc4nc[nH]c4c3)no2)cc1Br)C(F)(F)F` (centres unmarked) [Example 64] it is 5.7 nM; for `CC(Oc1ccc(-c2nc(-c3ccc4cn[nH]c4c3)no2)cc1C(F)(F)F)C(F)(F)F` (centres unmarked) [Example 65] it is 4 nM.
The same measure, in the same setting: the figure for `CC(Oc1ccc(-c2nc(-c3cccc4[nH]ccc34)no2)cc1C(F)(F)F)C(F)(F)F` (centres unmarked) [Example 67] is 3.7 nM; for `NC(=O)Cn1ccc2c(-c3noc(-c4ccc(C5CCCC5)c(C(F)(F)F)c4)n3)cccc21` [Example 81] it is 5.9 nM; for `CC(Oc1ccc(-c2nc(-c3ccc4nc[nH]c4c3)no2)cc1C(F)F)C(F)(F)F` (centres unmarked) [Example 87] it is 3.7 nM.
The same measure, in the same setting: the figure for `C=CCOc1ccc(-c2nc(-c3ccc4[nH]cnc4c3)no2)cc1C(F)(F)F` [Example 106] is 8.7 nM.
Compound `FC(F)COc1ccc(-c2nc(-c3ccc4[nH]cnc4c3)no2)cc1C(F)(F)F` [Example 110] returned an EC50 of 6.2 nM.
On the same count and under the same terms, in the case of `C[C@@H](Oc1ccc(-c2nc(-c3ccc4[nH]cnc4c3)no2)cc1C(F)(F)F)C(F)(F)F` [Example 120] it was 4.6 nM; in that of `FC(F)(F)c1cc(-c2nc(-c3ccc4nc[nH]c4c3)no2)ccc1Oc1ccccc1` [Example 121], 12 nM.
In turn, `NC(=O)Cn1ccc2c(-c3noc(-c4cnc(OC(CF)CF)c(Cl)c4)n3)cccc21` [Example 143] came in with a concentration for a half-maximal effect (EC50) of 5.4 nM.
The same measure, in the same setting: the figure for `Cc1cc(-c2nc(-c3cccc4c3ccn4CC(N)=O)no2)ccc1O[C@@H](C)C(F)(F)F` [Example 147] is 3.2 nM; for `CC(Oc1ccc(-c2nc(-c3cccc4c3ccn4C)no2)cc1C(F)(F)F)C(F)(F)F` (centres unmarked) [Example 151] it is 11 nM; for `CC(Oc1ccc(-c2nc(-c3cccc4c3CCN4C)no2)cc1C(F)(F)F)C(F)(F)F` (centres unmarked) [Example 152] it is 7.6 nM.
For the compound `NC(=O)Cn1ccc2c(-c3noc(-c4ccc(OC(CF)CF)c(C(F)(F)F)c4)n3)cccc21` [Example 158], the EC50 came out at 1.8 nM.
`CC(Oc1ccc(-c2nc(-c3cccc4c3ccn4CC(N)=O)no2)cc1C#N)C(F)(F)F` (centres unmarked) [Example 163] came in with an EC50 of 1.9 nM.
On the same count and under the same terms, the figure for `CC(Oc1ccc(-c2nc(-c3cccc4c3ccn4CC(N)=O)no2)cc1Cl)C(F)(F)F` (centres unmarked) [Example 164] is 2.8 nM; for `C[C@H](Oc1ncc(-c2nc(-c3cccc4c3ccn4CC(N)=O)no2)cc1Cl)C(F)(F)F` [Example 173] it is 4.3 nM.
The compound `CC(Oc1ccc(-c2nc(-c3cccc4c3ccn4CC(N)=O)no2)cc1C(F)(F)F)C(F)(F)F` (centres unmarked) [Example 181] yielded an EC50 of 4.7 nM.
Still for that read-out and setting: in the case of `COCC(=O)n1ccc2c(-c3noc(-c4ccc(OC(C)C(F)(F)F)c(C(F)(F)F)c4)n3)cccc21` (centres unmarked) [Example 182] it was 4.2 nM; in that of `Cc1cc(-c2nc(-c3cccc4c3ccn4CC(=O)NCCO)no2)ccc1O[C@@H](C)C(F)(F)F` [Example 193], 6.8 nM.
`C[C@H](Oc1ccc(-c2nc(-c3cccc4c3ccn4CC(=O)NCCO)no2)cc1C(F)(F)F)C(F)(F)F` [Example 194] had an EC50 of 2 nM.
Same read-out and setting: the figure for `CC(C)Oc1ccc(-c2nc(-c3cccc4c3ccn4CC(=O)NCCO)no2)cc1C(F)(F)F` [Example 196] is 5.3 nM; for `O=C(Cn1ccc2c(-c3noc(-c4ccc(OC(CF)CF)c(Cl)c4)n3)cccc21)NCCO` [Example 197] it is 3.3 nM.
Same read-out and setting: the figure for `C[C@@H](Oc1ccc(-c2nc(-c3ccc4[nH]cnc4c3)no2)cc1Cl)C(F)(F)F` [Example 200] is 3.6 nM.

For a further test, the system named is number of the lymphocytes in peripheral blood. Description: Evaluation of peripheral blood lymphopenia in rat. The following applies: Rattus norvegicus, Lymphocyte, po, 24 h, read-out: ED50 value after 24 hours. It is filed as in vivo. On the procedure: 2) Evaluation of Peripheral Blood Lymphopenia in Rat
The peripheral blood lymphopenia in rat was measured at 24 hours after oral administration in the following manner. Six- to ten-week-old male Lewis rats (Japan Charles river laboratories) were randomly divided into the groups (n=3), and the compound of the present invention was suspended in 0.5% methyl cellulose-containing distilled water, and orally administered with a sonde. At 24 hours after administration, under ether anesthesia, 0.2 ml of blood was collected from ocular fundus. To the blood sample were immediately added EDTA/4K and heparin to prevent clotting, and the number of the lymphocytes in blood was measured with an automatic haematology analyzer (Sysmex Corp.; XT-2000i). For the reduction of the number of the lymphocytes in peripheral blood by the compound of the present invention, the percentage with the number of the lymphocytes in groups administered with 0.5% methyl cellulose-containing distilled water being set at 100%, as performed at the same time was used, and the dose to cause 50% reduction of the number of the lymphocytes in peripheral blood by administration of the compound of the present invention was defined an ED50 value (mg/kg).
The ED50 is the dose at which the effect has come halfway, by size or by number of responders. Turning to `CC(Oc1ccc(-c2nc(-c3cccnc3N)no2)cc1C(F)(F)F)C(F)(F)F` (centres unmarked) [Comparative Compound 2], the ED50 came out at 8.8 mg/kg.

The same test, now with this note: Rattus norvegicus, Lymphocyte; male Lewis rats, oral administration, 50% reduction of the number of lymphocytes in peripheral blood at 24 hours after administration; read-out: ED50 value after 24 hours.
For `CNc1ncccc1-c1noc(-c2ccc(OC(C)C(F)(F)F)c(C(F)(F)F)c2)n1` (centres unmarked) [Comparative Compound 1], the 50% effective dose (ED50) came out at 1.4 mg/kg.
In the case of `Cc1ccc(Cl)cc1-c1noc(-c2ccc(OC(C)C(F)(F)F)c(C(F)(F)F)c2)n1` (centres unmarked) [Comparative Compound 3], the ED50 was 3.7 mg/kg.
For the compound `CNc1ncccc1-c1noc(-c2ccc(O[C@@H](C)C(F)(F)F)c(Cl)c2)n1.Cl` [Comparative Compound 4], the ED50 was over 10 mg/kg.
Same read-out and setting: in the case of `CNc1ncccc1-c1noc(-c2ccc(OC(C)C(F)(F)F)c(Cl)c2)n1.Cl` (centres unmarked) [Comparative Compound 5] it was over 10 mg/kg.
